Test results from patent US5959130A, “Castor based benzoate esters” (Finetex, Inc., priority 1997, dated 1999).

Tests used:
[1] = viscosity readings of titanium dioxide dispersions, Table VI B; assay type: physicochemical; details: for Viscosity reading of dispersion: Brookfield LVT-D @ 12 RPM, TiO2 50%
[2] = viscosity readings of Red No. 21 dispersions, Table VI B; assay type: physicochemical; details: for Viscosity reading of dispersion: Brookfield LVT-D @ 12 RPM, Red No. 21 35%
[3] = Hagman readings (particle size), titanium dioxide dispersion, Table VI A; assay type: physicochemical; details: for Hagman reading (particle size): TiO2 50%
Experimental: (§1) The novel benzoate esters of the invention were tested for pigment and dye dispersing efficacy. Color pastes were prepared by dispersing dry pigment into the oil phase while hand stirring and then passing each mixture through a three roll mill six times, collecting a 16 oz. sample after each pass. The samples collected were subjected to particle size measurements.

[4] = organoleptic evaluation of tactile characteristics on the forearm, Table VII; assay type: in vivo, individuals; details: rating, 1 = Worst 5 = Best
Experimental: The tactile characteristics of the novel benzoate esters of the invention were determined by applying the appropriate material, neat or as a dilution with another emollient ester, lanolin or […]. The properties were evaluated organoleptically after application to the interior surface of the forearm.

[5] = Hagman readings (particle size), Red No. 21 dispersion, Table VI A; assay type: physicochemical; details: Red No. 21 35%
Experimental: as §1

[6] = sunscreen solubility: PARSOL 1789, Table IV B; assay type: physicochemical
From the text: (§2) These two sunscreens are difficult to dissolve and keep in solution for use in sunscreen formulations for optimal SPF (sun-protection factors). Higher solvency for a sunscreen ingredient is desirable as it allows higher concentrations of the sunscreen active ingredient in a formulation. This advantageously raises the SPF ratings for the formulation. The liquid organic sunscreens that are commonly used are octyl-methoxy cinnamate (OMC) and octyl salicylate (OS).
(§3) Solubility/Solvency Tables IVA and IVB show the solubility and concentrations of the sunscreen ingredient in the novel esters of the invention compared to their precursor raw materials (non-benzoate esters).

[7] = Hagman readings (particle size), Red No. 6 Barium Lake dispersion, Table VI A; assay type: physicochemical; details: Red No. 6 Barium Lake 35%
Experimental: as §1

[8] = sunscreen solubility: Benzophenone-3, Table IV A; assay type: physicochemical
From the text: as §2, §3

[9] = physical properties of benzoate esters compared to precursors, Table II; assay type: physicochemical; details: for VISCOSITY: Brookfield Viscometer, Spindle # 1, 10 rpm
From the text: Absence of odor is an important factor in consumer acceptance of cosmetic and toiletry products.

[10] = Gardnor scale
[11] = 23° C., 10 gms sunscreen in 100 gms mixture
[12] = 23° C., 15 gms sunscreen in 100 gms mixture
[13] = 30° C., 10 gms sunscreen in 100 gms mixture
[14] = 30° C., 15 gms sunscreen in 100 gms mixture

In the case of `CCCCCCCCCCCCCCCCOC(=O)CCCCCCCC=CCC(CCCCCC)OC(=O)c1ccccc1` (stereo not shown) [BCR, benzoic acid ester of cetyl-ricinoleate], the “viscosity of TiO2 dispersions (in words)” value [1] is reported as “much lower viscosity”, the “Viscosity reading of dispersion” value ([1]; pass 1) is reported as 1794 cps and the “Viscosity reading of dispersion” value ([1]; pass 2) is reported as 1872 cps. The “Viscosity reading of dispersion” value ([1]; pass 3) was 2028 cps, the “Viscosity reading of dispersion” value ([1]; pass 4) was 2028 cps and the “Viscosity reading of dispersion” value ([1]; pass 5) was 2028 cps. The “Viscosity reading of dispersion” value ([1]; pass 6) was 1950 cps, the “viscosity of Red No. 21 dispersion (in words)” value [2] was “excellent low viscosity dispersion” and the “Viscosity reading of dispersion” value ([2]; pass 1) was 4602 cps. The “Viscosity reading of dispersion” value ([2]; pass 2) was 4368 cps, the “Viscosity reading of dispersion” value ([2]; pass 3) was 4212 cps and the “Viscosity reading of dispersion” value ([2]; pass 4) was 4134 cps. For the same molecule, the “Viscosity reading of dispersion” value ([2]; pass 5) was 4290 cps, the “Viscosity reading of dispersion” value ([2]; pass 6) was 4368 cps and the “Hagman reading (particle size)” value ([3]; pass 1) was at most 30 μm. The “Hagman reading (particle size)” value ([3]; pass 2) was at most 30 μm, the “Hagman reading (particle size)” value ([3]; pass 3) was at most 21 μm and the “Hagman reading (particle size)” value ([3]; pass 4) was at most 18 μm. For the same molecule, the “Hagman reading (particle size)” value ([3]; pass 5) was at most 10 μm, the “Hagman reading (particle size)” value ([3]; pass 6) was at most 10 μm and the “particle size reduction vs precursor CR (in words)” value ([3]; third pass and onwards) was “better reduction of particle size”. For the same molecule, the GREASINESS/OILINESS [4] was 4, the “OVERALL TACTILITY” value [4] was 4 and the SPREADABILITY [4] was 3. For the same molecule, the TACK [4] was 3, the “Hagman reading (particle size)” value ([5]; pass 1) was at most 34 μm and the “Hagman reading (particle size)” value ([5]; pass 2) was at most 26 μm. For the same molecule, the “Hagman reading (particle size)” value ([5]; pass 3) was at most 20 μm, the “Hagman reading (particle size)” value ([5]; pass 4) was at most 12 μm and the “Hagman reading (particle size)” value ([5]; pass 5) was at most 8 μm. For the same molecule, the “Hagman reading (particle size)” value ([5]; pass 6) was at most 6 μm, the “Sunscreen solubility (Parsol 1789)” value [6, 11] was “+” and the “Sunscreen solubility (Parsol 1789)” value [6, 12] was “+”. The “Sunscreen solubility (Parsol 1789)” value [6, 13] was “+”, the “Sunscreen solubility (Parsol 1789)” value [6, 14] was “+” and the “Hagman reading (particle size)” value ([7]; pass 1) was at most 53 μm. For the same molecule, the “Hagman reading (particle size)” value ([7]; pass 2) was at most 50 μm, the “Hagman reading (particle size)” value ([7]; pass 3) was at most 46 μm and the “Hagman reading (particle size)” value ([7]; pass 4) was at most 33 μm. For the same molecule, the “Hagman reading (particle size)” value ([7]; pass 5) was at most 30 μm, the “Hagman reading (particle size)” value ([7]; pass 6) was at most 27 μm and the “Sunscreen solubility (Benzophenone-3)” value [8, 11] was “+”. For the same molecule, the “Sunscreen solubility (Benzophenone-3)” value [8, 12] was “+”, the “Sunscreen solubility (Benzophenone-3)” value [8, 13] was “+” and the “Sunscreen solubility (Benzophenone-3)” value [8, 14] was “+”. For the same molecule, the “S.G. (specific gravity)” value ([9]; 25° C.) was 0.915 and the VISCOSITY [9] was 80 cps.
In the case of `CCCCCCC(CCCCCCCCCCC(=O)OCC(COC(=O)CCCCCCCCCCC(CCCCCC)OC(=O)c1ccccc1)OC(=O)CCCCCCCCCCC(CCCCCC)OC(=O)c1ccccc1)OC(=O)c1ccccc1` (stereo not shown) [BHCO, Benzoic acid ester of glyceryl-trihydroxy stearate], the GREASINESS/OILINESS [4] is reported as 4, the “OVERALL TACTILITY” value [4] is reported as 3 and the SPREADABILITY [4] is reported as 3. It also gave a TACK [4] of 3.
In the case of `CCCCCCC(CCCCCCCCCCC(=O)OCC(CC)CCCC)OC(=O)c1ccccc1` (stereo not shown) [BOHS, benzoic acid ester of 2 ethyl hexyl 12-hydroxy stearate], the “viscosity of TiO2 dispersions (in words)” value [1] is reported as “much lower viscosity”, the “Viscosity reading of dispersion” value ([1]; pass 1) is reported as 1170 cps and the “Viscosity reading of dispersion” value ([1]; pass 2) is reported as 1170 cps. The “Viscosity reading of dispersion” value ([1]; pass 3) was 1326 cps, the “Viscosity reading of dispersion” value ([1]; pass 4) was 1326 cps and the “Viscosity reading of dispersion” value ([1]; pass 5) was 1326 cps. The “Viscosity reading of dispersion” value ([1]; pass 6) was 1326 cps, the “Hagman reading (particle size)” value ([3]; pass 1) was at most 20 μm and the “Hagman reading (particle size)” value ([3]; pass 2) was at most 14 μm. For the same molecule, the “Hagman reading (particle size)” value ([3]; pass 3) was at most 14 μm, the “Hagman reading (particle size)” value ([3]; pass 4) was at most 10 μm and the “Hagman reading (particle size)” value ([3]; pass 5) was at most 9 μm. For the same molecule, the “Hagman reading (particle size)” value ([3]; pass 6) was at most 8 μm, the GREASINESS/OILINESS [4] was 4 and the “OVERALL TACTILITY” value [4] was 3. The SPREADABILITY [4] was 4, the TACK [4] was 3 and the “Sunscreen solubility (Parsol 1789)” value [6, 11] was “+”. For the same molecule, the “Sunscreen solubility (Parsol 1789)” value [6, 12] was “+”, the “Sunscreen solubility (Parsol 1789)” value [6, 13] was “+” and the “Sunscreen solubility (Parsol 1789)” value [6, 14] was “+”. For the same molecule, the “Sunscreen solubility (Benzophenone-3)” value [8, 11] was “+”, the “Sunscreen solubility (Benzophenone-3)” value [8, 12] was “+” and the “Sunscreen solubility (Benzophenone-3)” value [8, 13] was “+”. For the same molecule, the “Sunscreen solubility (Benzophenone-3)” value [8, 14] was “+”, the “S.G. (specific gravity)” value ([9]; 25° C.) was 0.928 and the TITER ([9]; 25° C.) was “clear”. It also gave a VISCOSITY [9] of 110 cps.
`CCCCCCC(CCCCCCCCCCC(=O)OCC(COC(=O)CCCCCCCCCCC(CCCCCC)OC(=O)c1ccccc1)OC(=O)CCCCCCCCCCC(CCCCCC)OC(=O)c1ccccc1)OC(=O)c1ccccc1` (stereo not shown) [Example 6, Castor Wax MP-80 Benzoate] showed a Color [10] of 3.
With `CCCCCCC(CCCCCCCCCCC(=O)OCC(COC(=O)CCCCCCCCCCC(CCCCCC)OC(=O)c1ccccc1)OC(=O)CCCCCCCCCCC(CCCCCC)OC(=O)c1ccccc1)OC(=O)c1ccccc1` (stereo not shown) [Example 7, Castor Wax MP-80 Benzoate] the Color [10] was 3.
`CCCCCCCCCCCCCCCCOC(=O)CCCCCCCC=CCC(CCCCCC)OC(=O)c1ccccc1` (stereo not shown) [Example 8, Benzoate Ester of Cetyl Ricinoleate] showed a Color [10] of 4.
`CCCCCCCCCCCCCCCCOC(=O)CCCCCCCC=CCC(CCCCCC)OC(=O)c1ccccc1` (stereo not shown) [Example 9, Benzoate Ester of Cetyl Ricinoleate] showed a Color [10] of 4.
`CCCCCCCCCCCCCCCCOC(=O)CCCCCCCC=CCC(CCCCCC)OC(=O)c1ccccc1` (stereo not shown) [Example 10, Benzoate Ester of Cetyl Ricinoleate] showed a Color [10] of 4.
Molecule `CCCCCCCCCCCCCCCCOC(=O)CCCCCCCC=CCC(CCCCCC)OC(=O)c1ccccc1` (stereo not shown) [Example 11, Benzoate Ester of Cetyl Ricinoleate] has a Color [10] of 4.
In the case of `CCCCCCC(O)CCCCCCCCCCC(=O)OCC(CC)CCCC` (stereo not shown) [OHS, octyl hydroxystearate, reference compound], the “Sunscreen solubility (Parsol 1789)” value [6, 11] is reported as “+”, the “Sunscreen solubility (Parsol 1789)” value [6, 13] is reported as “+” and the “Sunscreen solubility (Parsol 1789)” value [6, 14] is reported as “+”. For the same molecule, the “Sunscreen solubility (Benzophenone-3)” value [8, 11] was “+”, the “Sunscreen solubility (Benzophenone-3)” value [8, 13] was “+” and the “Sunscreen solubility (Benzophenone-3)” value [8, 14] was “+”.
